Measured values taken from patent US20190192524A1, “Modulators of Caspase-6” (The University of British Columbia, priority 2014, published 2019).
pIC50: −log10 of the molar value.

Experiments:
[1] = biological target: T1, recombinant caspase-6 (Homo sapiens, UniProt P55212); assay: Simultaneous caspase-6 cleavage and 586 fragment detection by FRET; assay type: biochemical; conditions: cell-free; Htt substrate from COS-7 cell lysates
T1 construct: purchased BioMol
T1 sequence (P55212 24-293): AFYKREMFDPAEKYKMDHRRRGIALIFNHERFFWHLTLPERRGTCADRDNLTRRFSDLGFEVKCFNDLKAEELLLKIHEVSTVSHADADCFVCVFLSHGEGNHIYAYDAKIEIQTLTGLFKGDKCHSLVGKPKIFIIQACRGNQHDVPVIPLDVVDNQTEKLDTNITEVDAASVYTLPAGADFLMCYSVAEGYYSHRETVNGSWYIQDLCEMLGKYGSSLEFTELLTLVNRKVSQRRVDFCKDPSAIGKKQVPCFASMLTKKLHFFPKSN
Description: Different concentrations of the PG3 compounds were incubated with the Htt protein and the caspase-6 enzyme. The Htt substrate from COS-7 cell lysates is cleaved by caspase 6 and fragments are detected by FRET between the N-terminal BKP1 antibody and the neo-epitope antibody against amino acid 586.
COS-7 cells were grown in DMEM supplemented with 10% fetal bovine serum, 1%/penicillin/streptomycin and 0.5% glutamine. Transfections were performed using the Fugene reagent (Roche) according to manufacturer's instructions. The transfected DNA encodes amino acids 1-1212 of the human Htt protein with 15 glutamines and a C-terminal HA-tag, under control of a CMV promoter (Warby, 2008, supra; Wellington et al., 2000. J Biol Chem 275:19831-19838). The construct that was transfected is 4c Htt, which contains D→A mutations at amino acids 513, 530, 552 and […] (SEQ ID NO: 1). 24 h after transfection, cells were harvested by trypsinization, pellets washed in PBS and lysed by suspension in lysis buffer (50 mM Tris pH 8, 150 mM NaCl, 1% Igepal, supplemented with 1× complete protease inhibitor (Roche) and 4 mM Pefabloc). Lysates were incubated on ice for 10 min, vortexed and sonicated for 4 sec before centrifugation at 21,000×g for 10 min at 4° C. Supernatants were saved, protein concentration determined with the Biorad DC assay and stored at −80° C. until use.
Dilution series of cell lysates and caspase-6 (2.2× final concentration) were prepared in FRET cleavage buffer (10 mM HEPES pH 7.4, 100 mM NaCl, 0.05% gelatin, 0.1% CHAPS, 2 mM DTT) since this buffer was previously found to best stabilize caspase-6 in dilute form at room temperature. For negative controls, 22 μM zVAD-fmk was added to the caspase-6 dilutions.
Tb-labelled BKP1 antibody and D2-labelled 586 antibody (Cisbio) were diluted to 1 ng/μl (Tb) and 10 ng/μl (D2) in FRET cleavage buffer and pre-mixed at a 1:1 ratio.
In each well of a white 384 well plate (Nunc), 10 μl cell lysate were mixed with 10 μl caspase and 2 μl antibody mix, the plate was centrifuged briefly and incubated in the Victor 3 multilabel plate reader (Perkin Elmer) at 37° C. FRET was measured every 30 min for up to 2 h with the following settings: Excitation: 340 nm, Emission 1: 615 nm, Emission 2: 665 nm, 50 μs delay, 200 μs window time, 2000 μs cycle time. To obtain the final FRET signal, the ratio between Emission 2/Emission 1 (D2/Tb signal) was calculated. After 2 h at 37° C., the assay plate was sealed and after further incubation at 4° C. for 20 h, the FRET signal was read again.

[2] = biological target: T2, caspase-6 (Mus musculus, UniProt O08738); assay: Lamin A cleavage in primary cortical neuronal culture treated with camptothecin; assay type: cell-based, FVB/N mice; conditions: 10 uM compound; 10 uM camptothecin for 30 h
T2 construct: endogenous in cells; host or cells: primary cortical neurons from FVB/N mice
T2 sequence (O08738 6-276): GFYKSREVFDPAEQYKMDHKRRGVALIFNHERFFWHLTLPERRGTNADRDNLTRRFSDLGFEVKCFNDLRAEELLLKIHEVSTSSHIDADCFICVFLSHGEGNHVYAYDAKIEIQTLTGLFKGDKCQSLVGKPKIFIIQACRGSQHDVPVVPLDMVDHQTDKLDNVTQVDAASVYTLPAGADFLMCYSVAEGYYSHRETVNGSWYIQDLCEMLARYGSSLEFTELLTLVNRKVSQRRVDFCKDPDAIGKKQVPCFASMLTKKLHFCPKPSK
Description: Cortical neuronal cultures from FVB mice were prepared as described (Metzler et al, J Neurosci (2007) 27(9):2298). At day 10 in vitro, cells were treated with camptothecin, and after 30 h harvested by scraping in PBS supplemented with 1× complete protease inhibitor (Roche) and 4 mM Pefabloc. Cells were lysed by suspension in lysis buffer (50 mM Tris pH8, 150 mM NaCl, 1% Igepal, supplemented with 1× complete protease inhibitor (Roche) and 4 mM Pefabloc). Lysates were incubated on ice for 10 min, vortexed and sonicated for 4 sec before centrifugation at 21 000×g for 10 min at 4° C. Supernatants were saved, protein concentration determined with the Biorad DC assay and quantitative assessment of cleaved lamin A in neuronal lysates was performed with the Mesoscale ELISA method as described in Ehrnhoefer et al. PLoS One, 2011. 6(11):e27680.
Next, it was determined whether the PG-3d compound could inhibit caspase-6 within neuronal cells in an in vitro neuronal system which may be more relevant for the testing of therapeutics for neurodegeneration. Briefly, primary cortical neuronal cultures from FVB/N mice were treated with 10 uM camptothecin for 30 h starting at DIV10 in the presence or absence of 10 uM of the PG-3d compound.

For `O=c1oc(C#Cc2ccccc2)nc(O)c1Cc1ccccc1` [PG-3d, 5-Benzyl-4-hydroxy-2-(phenylethynyl)-6H-1,3-oxazin-6-one], the pIC50 [1] was 5.25 and the “caspase-6 activity (cleaved lamin A)” value [2] was “significantly reduces”.
